PubChem BioAssay (NCI)
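1) Cells in 96-well plates. 2) Compound, 48 h, 5 concentrations. 3) Linear interpolation between surrounding doses. 4) Unreached endpoint = highest concentration. At the TGI there is no net growth.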 Where a SMILES comes first, the peptide text is derived from it. The star is where a group is joined. Boc = CC(C)(C)OC(=O)*

Columns and labels:
Assay in all cases: NCI tumour cell line growth inhibition, 48 h
MDA-MB-231 breast = tested on: MDA-MB-231 breast
A498 renal = tested on: A498 renal
HOP-92 NSCLC = tested on: HOP-92 NSCLC
U251 CNS = tested on: U251 CNS
SF-268 CNS = tested on: SF-268 CNS
NCI-H226 lung = tested on: NCI-H226 lung
TK-10 renal = tested on: TK-10 renal
HCT-116 colon = tested on: HCT-116 colon
IGROV1 ovarian = tested on: IGROV1 ovarian
SK-MEL-5 melanoma = tested on: SK-MEL-5 melanoma
HT29 colon = tested on: HT29 colon
MOLT-4 leukemia = tested on: MOLT-4 leukemia
OVCAR-3 ovarian = tested on: OVCAR-3 ovarian
RXF 393 renal = tested on: RXF 393 renal
COLO 205 colon = tested on: COLO 205 colon
SF-539 CNS = tested on: SF-539 CNS
T-47D breast = tested on: T-47D breast
OVCAR-5 ovarian = tested on: OVCAR-5 ovarian
SR leukemia = tested on: SR leukemia

| SMILES | TGI (MDA-MB-231 breast) | TGI (A498 renal) | TGI (HOP-92 NSCLC) | TGI (U251 CNS) | TGI (SF-268 CNS) | TGI (NCI-H226 lung) | TGI (TK-10 renal) | TGI (HCT-116 colon) | TGI (IGROV1 ovarian) | TGI (SK-MEL-5 melanoma) | TGI (HT29 colon) | TGI (MOLT-4 leukemia) | TGI (OVCAR-3 ovarian) | TGI (RXF 393 renal) | TGI (COLO 205 colon) | TGI (SF-539 CNS) | TGI (T-47D breast) | TGI (OVCAR-5 ovarian) | TGI (SR leukemia) |
| --- | --- | --- | --- | --- | --- | --- | --- | --- | --- | --- | --- | --- | --- | --- | --- | --- | --- | --- | --- |
| CCNc1nc(N)c(C(=O)c2cccs2)s1 | > 100 µM | 82.6 µM | > 100 µM | > 100 µM | > 100 µM | 76 µM | > 100 µM | > 100 µM | 50.3 µM | 44.8 µM | 72.4 µM | 60.7 µM | > 100 µM | 20 µM | 22.8 µM | 46.4 µM | 84.3 µM | > 100 µM | – |
| CCCC(=O)OCC1(CO)C/C(=C/CC(C(C)C)C(C)C)C(=O)O1 (stereo not drawn) | > 100 µM | > 100 µM | > 100 µM | > 100 µM | > 100 µM | > 100 µM | > 100 µM | > 100 µM | > 100 µM | > 100 µM | > 100 µM | – | > 100 µM | > 100 µM | > 100 µM | – | > 100 µM | > 100 µM | – |
| COC(=O)C(Cc1c[nH]c2ccccc12)NC(=O)C(Cc1c[nH]c2ccccc12)NC(=O)C(Cc1c[nH]c2ccccc12)NC(=O)OC(C)(C)C (stereo not drawn) (Boc-Trp-Trp-Trp-OMe; configuration not given here) | 93.1 µM | > 100 µM | 33 µM | 32.4 µM | – | 37.1 µM | 46.7 µM | 29.8 µM | 40.5 µM | > 100 µM | 35.9 µM | 39.9 µM | – | 21 µM | 42.7 µM | – | 29.4 µM | 32 µM | – |
| CC(C)Oc1c(C2(c3ccccc3O)SCCCS2)c(=O)c1=O | > 100 µM | > 100 µM | > 100 µM | > 100 µM | > 100 µM | > 100 µM | > 100 µM | > 100 µM | > 100 µM | > 100 µM | > 100 µM | > 100 µM | > 100 µM | > 100 µM | > 100 µM | > 100 µM | > 100 µM | > 100 µM | – |
| Cc1ccc(/C=C/C(=O)C(C)C)cc1 | – | > 100 µM | > 100 µM | > 100 µM | > 100 µM | – | > 100 µM | – | > 100 µM | > 100 µM | > 100 µM | 76.9 µM | 83.1 µM | > 100 µM | > 100 µM | – | – | 53.7 µM | 98.4 µM |
| Cc1cc(C)c(S(=O)(=O)N(CCCCCCN)OCCCN)c(C)c1 | 24.4 µM | – | 29.9 µM | 32.6 µM | 36.3 µM | 86.5 µM | 29.4 µM | 31.7 µM | 29.6 µM | 37.6 µM | 30 µM | 34.4 µM | 46 µM | – | 32.3 µM | 34.2 µM | 37.4 µM | 40.1 µM | – |
| CC(=O)/C=C(/C=N/O)c1ccccc1 | > 100 µM | – | – | > 100 µM | > 100 µM | > 100 µM | > 100 µM | > 100 µM | > 100 µM | > 100 µM | > 100 µM | > 100 µM | > 100 µM | – | > 100 µM | > 100 µM | > 100 µM | > 100 µM | > 100 µM |
